Test results as given in patent publication US9522184B2, “CD89 activation in therapy” (CSL BEHRING AG, priority 2010, dated 2016).

What was measured:
[1] = tested on: human neutrophils; experiment: CD89 surface expression on neutrophils by flow cytometry after inflammatory stimulus; format: cell-based
Excerpt: (§1) Antibodies: Anti-CD89 (Clone A59) (both unlabeled and phycoerythrin [PE]-conjugated), and PE-conjugated immunoglobulin G1 (IgG1) isotype control were from BD Biosciences (Basel, Switzerland). Goat anti-mouse IgG (GaM) and unlabelled control IgG1 were obtained from Jackson ImmunoResearch Laboratories (distributed by Milan Analytica, La Roche, Switzerland). Anti-Fas agonistic mAb (CH11) was obtained from LabForce AG (Nunningen, Switzerland). Pooled serum IgA was obtained from CSL Behring AG (Wankdorf, Bern), and was prepared as follows: IgA was purified from human plasma and side-fraction of the IVIg/SCIg manufacturing process by affinity chromatography using CaptureSelect Human IgA resin from BAC (Naarden, Netherlands). […] Cell purity was assessed by staining with Diff-Quik (Baxter, Düdingen, Switzerland) and light microscopy analysis. […] Immunofluorescence: CD89 surface expression was analyzed by flow cytometry following incubation of the cells with saturating concentrations of PE-conjugated anti-CD89 and isotype-matched PE-conjugated control mAbs. […] The caspase inhibitor qVD-OPh (quinoline-Val-Asp-difluorophenoxymethylketone) was used at […] Determination of Cell Death and Apoptosis: Cell death was assessed by uptake of 1 μM ethidium bromide and flow cytometric analysis (FACSCalibur, Becton Dickinson). […]

[2] = tested on: neutrophils; experiment: Pan-caspase inhibition of IgA-mediated neutrophil cell death; format: cell-based, human; settings: qVD-OPh 20 μM, 24 hours, in the presence and absence of LPS and GM-CSF; FIG. 6
Excerpt: as §1

Row | Molecule | CD89 expression on neutrophils ([1]; 8 hours, 100 ng/ml LPS or 10 ng/ml GM-CSF, blood neutrophils of healthy volunteers, FIG. 1A) | time to significant upregulation of CD89 expression ([1]; time course, FIG. 1B) [h] | effect on plasma IgA-mediated neutrophil cell death [2]
1 | GM-CSF: Cytokine (Novartis Pharma) used as inflammatory stimulus | CD89 expression was increased | 4 | –
2 | CC(C)[C@H](NC(=O)c1ccc2ccccc2n1)C(=O)N[C@@H](CC(=O)O)C(=O)COc1c(F)cccc1F [qVD-OPh, quinoline-Val-Asp-difluorophenoxymethylketone] | – | – | blocked
